Consider two compounds from patent publication US20060229433A1, “Modified antiviral peptides with increased activity and cell membrane affinity” (priority 2003, published 2006).

Square brackets hold non-standard residues; d marks the D form. Peptide text beside a SMILES is read from it. Ava = NCCCCC(=O)O

Broadly, the IC50 is the concentration needed to halve the response being measured.

The test system of assay [1] is HIV-1 NL 4-3. As to the kind of experiment: Infection of human peripheral blood lymphocytes (PBL) with NL 4-3 strain, p24 ELISA. Format: cell-based. A digest of the protocol:
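PHA-stimulated (3 days) HIV-negative donor PBL in RPMI/10% FCS with IL2 were pretreated 1 h at 37 °C with peptides, infected 1 h with HIV-1 (1000 TCID50/ml), then cultured three weeks with continuous peptide, medium renewed every 3-4 days. Supernatant p24 quantified by ELISA; viability by trypan-blue exclusion; duplicates.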
A general note: ELISA stands for enzyme-linked immunosorbent assay.

In assay [2] the test system is HIV-1 89.6 subtype B dualtropic (X4R5). The following applies: PBMC, Table 5.
Assay [3] has as its system HIV-1 NL 4-3. The assay can be described thus: HIV-1 infection of C8166 cells (syncytia formation, p24 ELISA) with HIV-1 NL 4-3. Also noted: key: ++, +, (+), (+)− and − represent decreasing numbers of syncitia formed.; ++, +, (+), (+)− and − represent decreasing numbers of syncitia formed.; ++, +, (+), (+)− and − represent decreasing numbers of syncitia formed.; ++, +, (+), (+)− and − represent decreasing numbers of syncitia formed.; ++, +, (+), (+)− and − represent decreasing numbers of syncitia formed. The class given is cell-based. The following applies: Table 2. The procedure:
HIV-1 NL 4-3 isolate (Adachi et al., 1986; Barré-Sinoussi et al., 1983) and highly cytopathic Zairian HIV-1 NDK isolate (Ellrodt et al., 1984) was propagated in permissive CEM cells (Nara et al., 1987). Uninfected CEM and C8166 (Salahuddin et al., 1983) were maintained in RPMI 1640 (R10) with ultraglutamine (cambrex, Vervier, Belgium), penicillin (100 U/ml), streptomycin (100 μg/ml), and 10% heat-inactivated fetal calf serum (Cambrex).
Samples of 3×10^5/100 μL C8166 cells were preincubated in 96-well microtiter plates in culture medium containing various concentrations of peptide. After a 1 h treatment at 37° C., 100 μl of diluted viral solution of HIV-1 was added. The cells were exposed to the virus for 1 h at 37° C. at a multiplicity of infection of 1000 TCID50 per ml. The cells were washed three times and cultured at 3×10^5/ml of R10 with the treatment in 24-well plates incubated at 37° C. C8166 culture medium was replaced at Day-4 post-infection. The treatment was permanent before virus adsorption, during virus adsorption and after infection. Assays on C8166 cells have been performed at least twice and in duplicate. Toxicity was evaluated by daily cell count and trypan-blue exclusion assay. Infection of C8166 T-cells with HIV-1 was assessed by virus-induced cytopathic effects (syncytia formation) and by quantification of cell free p24 viral protein in the culture supernatants. Measurements of HIV-1 p24^gag concentration in the culture supernatants were achieved by ELISA (ALLIANCE® HIV-1 p24 kit, Perkin Elmer, life sciences, USA).

In the case of `C[C@H](NC(=O)[C@H](CCCNC(=N)N)NC(=O)CNC(=O)[C@@H]1CCCN1C(=O)CN)C(=O)N[C@@H](Cc1ccccc1)C(=O)NCCCCC(=O)O` [SPC3 monomer valeric acid, GPGRAF-NHCH2CH2CH2CH2COOH] (H-GPGRAF[Ava]-OH; N-terminus assumed), the IC50 is 20 nM in the assay on HIV-1 NL 4-3 [1] (PBL, NL 4-3 strain, Table 4) and 10 nM in assay [2]. Moreover, the IC100 with HIV-1 NL 4-3 [1] (PBL, NL 4-3 strain, Table 4) was 0.1 µM; in the assay on HIV-1 NL 4-3 [1] (text b43 on PBL results), 0.1 µM; in assay [2] it was 0.5 µM.

On to `C[C@H](NC(=O)[C@H](CCCNC(=N)N)NC(=O)CNC(=O)[C@@H]1CCCN1C(=O)CN)C(=O)N[C@@H](Cc1ccccc1)C(=O)NCCCC[C@H](NC(=O)[C@H](Cc1ccccc1)NC(=O)[C@H](C)NC(=O)[C@H](CCCNC(=N)N)NC(=O)CNC(=O)[C@@H]1CCCN1C(=O)CN)C(=O)NCCCC[C@H](NC(=O)[C@H](CCCCNC(=O)[C@H](Cc1ccccc1)NC(=O)[C@H](C)NC(=O)[C@H](CCCNC(=N)N)NC(=O)CNC(=O)[C@@H]1CCCN1C(=O)CN)NC(=O)[C@H](Cc1ccccc1)NC(=O)[C@H](C)NC(=O)[C@H](CCCNC(=N)N)NC(=O)CNC(=O)[C@@H]1CCCN1C(=O)CN)C(=O)NCCCC[C@H](NC(=O)[C@H](CCCCNC(=O)[C@H](CCCCNC(=O)[C@H](Cc1ccccc1)NC(=O)[C@H](C)NC(=O)[C@H](CCCNC(=N)N)NC(=O)CNC(=O)[C@@H]1CCCN1C(=O)CN)NC(=O)[C@H](Cc1ccccc1)NC(=O)[C@H](C)NC(=O)[C@H](CCCNC(=N)N)NC(=O)CNC(=O)[C@@H]1CCCN1C(=O)CN)NC(=O)[C@H](CCCCNC(=O)[C@H](Cc1ccccc1)NC(=O)[C@H](C)NC(=O)[C@H](CCCNC(=N)N)NC(=O)CNC(=O)[C@@H]1CCCN1C(=O)CN)NC(=O)[C@H](Cc1ccccc1)NC(=O)[C@H](C)NC(=O)[C@H](CCCNC(=N)N)NC(=O)CNC(=O)[C@@H]1CCCN1C(=O)CN)C(=O)NCCC(=O)O` [SPC3, (GPGRAF)8-K4-K2-K-βA-OH, reference compound], for which, in the assay with HIV-1 NL 4-3 [1] (PBL, NL 4-3 strain, Table 4), inhibition was half-maximal at 10 nM (IC50) and the IC100 was determined as 0.1 µM. Also, the IC100 in the assay on HIV-1 NL 4-3 [1] (on PBL) was 2 µM. The IC100 in the assay with HIV-1 NL 4-3 [1] (text b43 on PBL results) turned out to be 2 µM. In the assay with HIV-1 NL 4-3 [3] (1 μM), the “Day 4 syncitia formed” value is recorded as “(+)”, the “Day 5 syncitia formed” value is listed as “+”, the “Day 6 syncitia formed” value is “++” and the “Day 7 syncitia formed” value is reported as “++”. For the same compound, in the assay on HIV-1 NL 4-3 [3] (5 μM), the “Day 4 syncitia formed” value was “−”, the “Day 5 syncitia formed” value is given as “(+)”, the “Day 6 syncitia formed” value is listed as “+” and the “Day 7 syncitia formed” value was “++”. In assay [2], this compound returned an IC50 of 60 nM and an IC100 of 0.5 µM.
